Structures are written as SMILES.

This test concerns the target T1, recombinant human mPGES-1 (Homo sapiens, UniProt O14684).
T1 construct: made in house; host or cells: Rosetta E. coli (membrane/microsome fraction)
T1 sequence (O14684 1-152): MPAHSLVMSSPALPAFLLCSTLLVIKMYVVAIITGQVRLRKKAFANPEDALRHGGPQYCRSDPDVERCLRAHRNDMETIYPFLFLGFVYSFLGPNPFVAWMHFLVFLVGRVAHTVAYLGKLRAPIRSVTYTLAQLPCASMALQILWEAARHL
Description: mPGES-1 HTRF assay (inhibition of PGE2 formation from PGH2). The test is classed as biochemical. Particulars: HTRF assay. In short, it runs like this:
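Microsomes of E. coli expressing human mPGES-1, in 0.1 M KPi pH 7.4 with 2.5 mM GSH, preincubated 25 min at room temperature with inhibitor, then given PGH2 for 1 min before FeCl2 acidic stop. PGE2 quantified by HTRF (665/620 nm ratio) against synthetic PGE2 standard curve; percent inhibition versus controls.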
In the case of `COc1cc2[nH]c(Nc3cc(CNC(=O)C4(O)CC4)ccc3C(F)(F)F)nc2cc1C(=O)N[C@H]1CC[C@H](C(F)(F)F)CC1` [Example 94, N-(trans-4-Trifluoromethyl-cyclohex-1-yl)-2-(2-trifluoromethyl-5-{[(1-hydroxy-cyclopropane-carbonyl)amino]-methyl}-phenylamino)-6-methoxy-1H-benzimidazole-5-carboxylic acid amide], the IC50 was 3 nM.
Under `Cn1c(Nc2cc(CNC(=O)C(C)(C)C)ccc2C(F)(F)F)nc2cc(C(=O)N[C@H]3CC[C@H](C(F)(F)F)CC3)c(OCC(F)F)cc21` [Example 95, N-(trans-4-Trifluoromethyl-cyclohex-1-yl)-1-methyl-2-(2-trifluoromethyl-5-{[(tert-butylcarbonyl)-amino]-methyl}-phenylamino)-6-(2,2-difluoro-ethoxy)-1H-benzimidazole-5-carboxylic acid amide] stands 1 nM; under `CC(C)(C)C(=O)NCc1ccc(C(F)(F)F)c(Nc2nc3cc(C(=O)N[C@H]4CC[C@H](C(F)(F)F)CC4)c(OCC(F)F)cc3[nH]2)c1` [Example 96, N-(trans-4-Trifluoromethyl-cyclohex-1-yl)-2-(2-trifluoromethyl-5-{[(tert-butylcarbonyl)-amino]-methyl}-phenylamino)-6-(2,2-difluoro-ethoxy)-1H-benzimidazole-5-carboxylic acid amide], 1 nM; under `Cn1c(Nc2cc(CNC(=O)C(C)(C)C)ccc2Cl)nc2cc(C(=O)N[C@H]3CC[C@H](C(F)(F)F)CC3)c(OCCF)cc21` [Example 97, N-(trans-4-Trifluoromethyl-cyclohex-1-yl)-1-methyl-2-(2-chloro-5-{[(tert-butylcarbonyl)-amino]-methyl}-phenylamino)-6-(2-fluoro-ethoxy)-1H-benzimidazole-5-carboxylic acid amide], 5 nM.
With `Cn1c(Nc2cc(CNC(=O)C(C)(C)C)ccc2Cl)nc2cc(C(=O)N[C@H]3CC[C@H](C(F)(F)F)CC3)c(OCC(F)(F)F)cc21` [Example 98, N-(trans-4-Trifluoromethyl-cyclohex-1-yl)-1-methyl-2-(2-chloro-5-{[(tert-butylcarbonyl)-amino]-methyl}-phenylamino)-6-(2,2,2-trifluoro-ethoxy)-1H-benzimidazole-5-carboxylic acid amide], the half-maximal inhibitory concentration (IC50) is 6 nM.
Under `COc1ccc(CNC(=O)C(C)(C)C)cc1Nc1nc2cc(C(=O)N[C@H]3CC[C@H](C(F)(F)F)CC3)c(Cl)cc2[nH]1` [Example 99, N-(trans-4-Trifluoromethyl-cyclohex-1-yl)-2-(2-methoxy-5-{[(tert-butylcarbonyl)-amino]-methyl}-phenylamino)-6-chloro-1H-benzimidazole-5-carboxylic acid amide] stands more than 100 nM; under `CC(C)(C)C(=O)NCc1ccc(Cl)c(Nc2nc3cc(C(=O)Nc4ccc(Br)cc4)c(OCC(F)F)cc3n2CC(F)F)c1` [Example 100, N-(4-Bromo-phenyl)-2-(2-chloro-5-{[(tert-butylcarbonyl)-amino]-methyl}-phenylamino)-6-(2,2-difluoro-ethoxy)-1-(2,2-difluoroethyl)-1H-benzimidazole-5-carboxylic acid amide], 5 nM.

Source of the values: patent publication US8921405B2, “Compounds” (Orexo AB, priority 2009, dated 2014).
